# Measurements reported in patent publication US20070142395A1, “Treatment of sexual dysfunction with 1-[3-[4-(3-chlorophenyl)-1-piperazinyl]propyl]-5-methoxy-3,4-dihydro-2(1H)-quinolone or salt thereof” (Vela Pharmaceuticals, Inc., priority 2005, published 2007).
# Test system: patients with MDD
# Test: CSFQ shift analysis (sexual dysfunction / no sexual dysfunction by threshold), same clinical study
# Format: in vivo, Humans
# Details: shift baseline to Day 56, LOCF, 5 mg BID
# Procedure: A double-blind, randomized, placebo-controlled, parallel-group study was performed to evaluate the efficacy, safety and tolerability of OPC-14523 in patients with MDD. The patients selected for participation in the trial had to meet DSM-IV-TR criteria for MDD (296.2x or 296.3x; diagnosis via MINI) and had had symptoms of depression for at least 2 months before the start of the double-blind treatment. Among other drugs prohibited during the study, patients were prohibited from taking drugs used to enhance sexual function, including, but not limited to, sildenafil, tadalafil and vardenafil, or taking psychopharmacologic drugs.
# Each patient was expected to participate for up to 10 weeks. The 10 weeks included: i) a 4- to 10-day screening period, during which potential participants were administered placebo in a single-blind manner; ii) an 8-week double-blind treatment period; and iii) a 4- to 10- day post-treatment visit period. Baseline evaluations, including assessment of sexual function, were conducted on Day −1. The next day, Day 1, the double-blind medication was begun. All treatment was on an outpatient basis.
# The dosages studied were 5 mg BID OPC-14523 (10 mg total daily dose of immediate release tablet of Example 1) and placebo. The drugs were taken after meals in the morning and in the evening, about 12 hours apart.
# Data on sexual function were collected using the Changes in Sexual Function Questionnaire (CSFQ). The CSFQ is a 14-item self-report measure of sexual functioning vis-â-vis experiences of pleasure, desire, arousal, and orgasm, with a 5-point response option for each item. The 14-item validated CSFQ was developed from a questionnaire comprising 35 and 36 items for female and male respondents, respectively (Clayton et al., Psychopharmacol Bull. 33(4):731-45 (1997) and Clayton et al., Psychopharmacol Bull. 33(4):747-53 (1997), each incorporated herein by reference in its entirety). The CSFQ has also been independently validated (Bobes et al., J Sex Marital Ther. 26(2): 119-31(2000)). The 14-item CSFQ includes items 8, 11, 14, 19-24 from the interview version of the CSFQ (“CSFQ-I”); Clayton et al., Psychopharmacol Bull. 33(4):731-45 (1997)). The CSFQ differs for men and women, reflecting some variation in wording of items. Males were given the male clinical version, CSFQ-M-C, and women were given the female clinical version, CSFQ-F-C. CSFQ-F-C includes items 25, 27, 28, 30 and 31 from the questions for women on the CSFG-I. CSFQ-M-C includes items 28-32 from the questions for men on the CSFQ-I, as well as item 25 from the questions for women.
# The 14-item CSFQ has subscales for sexual pleasure (1 item), desire/frequency (2 items), desire/interest (3 items), arousal (3 items), and orgasm (3 items). In addition, a 14-item total score may be calculated. Higher scores are indicative of more favorable sexual functioning. Threshold scores for total and sub-scales have been defined. A score below the threshold score indicates dysfunction.
# The construction of shift tables is a routine analysis that is often carried out in the analysis of clinical trial data. For the data herein, the analysis was constructed by categorizing the subjects' scores at baseline and then separately at Day 56 according to having sexual dysfunction (SD) or no sexual dysfunction (NSD). These categories were defined by the threshold values specified in the CSFQ (see Table 4). The cross-classification of the baseline categories with the Day 56 categories results in a 2×2 table with the cells NSD/NSD, NSD/SD, SD/NSD, and SD/SD. Two categories represent the number and percent of subjects who stayed in the same category from baseline to Day 56 (NSD/NSD and SD/SD cells). The other two categories represent the number and percentage of subjects who shifted either for better (SD/NSD cell) or worse (NSD/SD cell). In the tables below, “remained low” refers to the SD/SD category. […]
smiles,measurement,setting,value
"COc1cccc2c1CCC(=O)N2CCCN1CCN(c2cccc(Cl)c2)CC1 [OPC-14523, 1-[3-[4-(3-chlorophenyl)-1-piperazinyl]propyl]-5-methoxy-3,4-dihydro-2(1H)-quinolone]","CSFQ Arousal/Excitement: Improved (Low→Normal), %",all patients (men and women),6%
same,"CSFQ Arousal/Excitement: Remained Low, %",all patients (men and women),84%
same,"CSFQ Arousal/Excitement: Remained Normal, %",all patients (men and women),7%
same,"CSFQ Arousal/Excitement: Worsened (Normal→Low), %",all patients (men and women),3 (3%)
same,"CSFQ Desire/Frequency: Improved (Low→Normal), %",all patients (men and women),13%
same,"CSFQ Desire/Frequency: Remained Low, %",all patients (men and women),75%
same,"CSFQ Desire/Frequency: Remained Normal, %",all patients (men and women),9%
same,"CSFQ Desire/Frequency: Worsened (Normal→Low), %",all patients (men and women),3%
same,"CSFQ Desire/Interest: Improved (Low→Normal), %",all patients (men and women),7%
same,"CSFQ Desire/Interest: Remained Low, %",all patients (men and women),78%
same,"CSFQ Desire/Interest: Remained Normal, %",all patients (men and women),12%
same,"CSFQ Desire/Interest: Worsened (Normal→Low), %",all patients (men and women),3 (3%)
same,"CSFQ Orgasm/Completion: Improved (Low→Normal), %",all patients (men and women),12%
same,"CSFQ Orgasm/Completion: Remained Low, %",all patients (men and women),64%
same,"CSFQ Orgasm/Completion: Remained Normal, %",all patients (men and women),17%
same,"CSFQ Orgasm/Completion: Worsened (Normal→Low), %",all patients (men and women),7%
same,"CSFQ Pleasure: Improved (Low→Normal), %",all patients (men and women),5%
same,"CSFQ Pleasure: Remained Low, %",all patients (men and women),91%
same,"CSFQ Pleasure: Remained Normal, %",all patients (men and women),3%
same,"CSFQ Pleasure: Worsened (Normal→Low), %",all patients (men and women),0 (0%)
same,"CSFQ Total Score: Improved (Low→Normal), %",all patients (men and women),16%
same,"CSFQ Total Score: Remained Low, %",all patients (men and women),42%
same,"CSFQ Total Score: Remained Normal, %",all patients (men and women),39%
same,"CSFQ Total Score: Worsened (Normal→Low), %",all patients (men and women),3 (3%)
same,"CSFQ Arousal/Excitement: Improved (Low→Normal), %",men only,2%
same,"CSFQ Arousal/Excitement: Remained Low, %",men only,79%
same,"CSFQ Arousal/Excitement: Remained Normal, %",men only,15%
same,"CSFQ Arousal/Excitement: Worsened (Normal→Low), %",men only,4%
same,"CSFQ Desire/Frequency: Improved (Low→Normal), %",men only,13%
same,"CSFQ Desire/Frequency: Remained Low, %",men only,77%
same,"CSFQ Desire/Frequency: Remained Normal, %",men only,9%
same,"CSFQ Desire/Frequency: Worsened (Normal→Low), %",men only,2%
same,"CSFQ Desire/Interest: Improved (Low→Normal), %",men only,2%
same,"CSFQ Desire/Interest: Remained Low, %",men only,81%
same,"CSFQ Desire/Interest: Remained Normal, %",men only,17%
same,"CSFQ Desire/Interest: Worsened (Normal→Low), %",men only,0 (0%)
same,"CSFQ Orgasm/Completion: Improved (Low→Normal), %",men only,9%
same,"CSFQ Orgasm/Completion: Remained Low, %",men only,68%
same,"CSFQ Orgasm/Completion: Remained Normal, %",men only,15%
same,"CSFQ Orgasm/Completion: Worsened (Normal→Low), %",men only,9%
same,"CSFQ Pleasure: Improved (Low→Normal), %",men only,2%
same,"CSFQ Pleasure: Remained Low, %",men only,91%
same,"CSFQ Pleasure: Remained Normal, %",men only,6%
same,"CSFQ Pleasure: Worsened (Normal→Low), %",men only,0 (0%)
same,"CSFQ Total Score: Improved (Low→Normal), %",men only,15%
same,"CSFQ Total Score: Remained Low, %",men only,40%
same,"CSFQ Total Score: Remained Normal, %",men only,43%
same,"CSFQ Total Score: Worsened (Normal→Low), %",men only,2%
same,"CSFQ Arousal/Excitement: Improved (Low→Normal), %",women only,9%
same,"CSFQ Arousal/Excitement: Remained Low, %",women only,88%
same,"CSFQ Arousal/Excitement: Remained Normal, %",women only,1 (1%)
same,"CSFQ Arousal/Excitement: Worsened (Normal→Low), %",women only,1 (1%)
same,"CSFQ Desire/Frequency: Improved (Low→Normal), %",women only,13%
same,"CSFQ Desire/Frequency: Remained Low, %",women only,74%
same,"CSFQ Desire/Frequency: Remained Normal, %",women only,9%
same,"CSFQ Desire/Frequency: Worsened (Normal→Low), %",women only,4%
same,"CSFQ Desire/Interest: Improved (Low→Normal), %",women only,10%
same,"CSFQ Desire/Interest: Remained Low, %",women only,76%
same,"CSFQ Desire/Interest: Remained Normal, %",women only,9%
same,"CSFQ Desire/Interest: Worsened (Normal→Low), %",women only,4%
same,"CSFQ Orgasm/Completion: Improved (Low→Normal), %",women only,15%
same,"CSFQ Orgasm/Completion: Remained Low, %",women only,61%
same,"CSFQ Orgasm/Completion: Remained Normal, %",women only,18%
same,"CSFQ Orgasm/Completion: Worsened (Normal→Low), %",women only,6%
same,"CSFQ Pleasure: Improved (Low→Normal), %",women only,7%
same,"CSFQ Pleasure: Remained Low, %",women only,91%
same,"CSFQ Pleasure: Remained Normal, %",women only,1 (1%)
same,"CSFQ Pleasure: Worsened (Normal→Low), %",women only,0 (0%)
same,"CSFQ Total Score: Improved (Low→Normal), %",women only,16%
same,"CSFQ Total Score: Remained Low, %",women only,43%
same,"CSFQ Total Score: Remained Normal, %",women only,37%
same,"CSFQ Total Score: Worsened (Normal→Low), %",women only,3%
